This note sets out measurements from patent publication US20250388604A1, “Compounds and Their Use as PDE4 Activators” (Mironid Limited, priority 2022, published 2025).

The test system of one experiment is m-IMCD3 cells. The experiment can be described thus: Inhibition of PGE2-stimulated in vitro cyst formation in m-IMCD3 cells. It counts as cell-based, mouse. The note with it: 3 μM; mean cyst area, 100% for (DMSO + PGE2) and 0% for DMSO control; 6 days of culture. The method, boiled down:
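m-IMCD3 cells embedded in collagen I/Matrigel 3D culture; 18–24 h after plating, compound (0.1% DMSO final) plus PGE2 (100 nM final) added, replenished after 2 or 3 days. After 6 days, z-stack imaging gave mean cyst area, normalized to DMSO+PGE2 (100%) and DMSO (0%).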
Regarding `CC(C(=O)N1CCc2nc(N3C4CCC3CNC4)sc2C1)C(C)(C)C` (single isomer, unassigned) [Example 158, 1-(2-(3,8-diazabicyclo[3.2.1]octan-8-yl)-6,7-dihydrothiazolo[5,4-c]pyridin-5(4H)-yl)-2,3,3-trimethylbutan-1-one], the “% Cyst area after incubation with 3 μM test compound” value was 7%.

Staying with this experiment, now noted: Mus musculus, mIMCD3, 144 h, 3 μM; mean cyst area, 100% for (DMSO + PGE2) and 0% for DMSO control; 6 days of culture; read-out: % Cyst area after incubation with 3 μM test compound.
In the case of `Cc1ccccc1C(=O)N1CCc2nc(N3C4CCC3CNC4)sc2C1` [Example 194, (2-(3,8-diazabicyclo[3.2.1]octan-8-yl)-6,7-dihydrothiazolo[5,4-c]pyridin-5(4H)-yl)(o-tolyl)methanone], the activity at 3 µM is 1%.

Consider `O=C(Cc1ccc(F)nc1)N1CCc2nc(N3C4CCC3CNC4)sc2C1` [Example 165, 1-(2-(3,8-diazabicyclo[3.2.1]octan-8-yl)-6,7-dihydrothiazolo[5,4-c]pyridin-5(4H)-yl)-2-(6-fluoropyridin-3-yl)ethan-1-one], for which the activity at 3 µM is 2%.

As to `O=C(C1Cc2ccccc2O1)N1CCc2nc(N3C4CCC3CNC4)sc2C1` (stereo not drawn) [Example 179, (2-(3,8-diazabicyclo[3.2.1]octan-8-yl)-6,7-dihydrothiazolo[5,4-c]pyridin-5(4H)-yl)(2,3-dihydrobenzofuran-2-yl)methanone], the activity at 3 µM is 2%.

On to `CCN1CC2CCC(C1)N2c1nc2c(s1)CN(C(=O)N[C@@H]1CCOc3ccccc31)CC2` [Example 295, N—((R)-chroman-4-yl)-2-(3-ethyl-3,8-diazabicyclo[3.2.1]octan-8-yl)-6,7-dihydrothiazolo[5,4-c]pyridine-5(4H)-carboxamide], for which the activity at 3 µM is -4%.

With `CC(OC1CCCC1)C(=O)N1CCc2nc(N3C4CCC3CNC4)sc2C1` (stereo not drawn) [Example 169, 1-(2-(3,8-diazabicyclo[3.2.1]octan-8-yl)-6,7-dihydrothiazolo[5,4-c]pyridin-5(4H)-yl)-2-(cyclopentyloxy)propan-1-one], the activity at 3 µM is -9%.

Regarding `O=C(N[C@H]1CCOc2ccccc21)N1CCc2nc(N3CCNCC3)sc2C1` [Example 296, (S)—N-(chroman-4-yl)-2-(piperazin-1-yl)-6,7-dihydrothiazolo[5,4-c]pyridine-5(4H)-carboxamide], the activity at 3 µM was found to be 33%.

Consider `O=C(c1cc2ccccc2cn1)N1CCc2nc(N3C4CCC3CNC4)sc2C1` [Example 192, (2-(3,8-diazabicyclo[3.2.1]octan-8-yl)-6,7-dihydrothiazolo[5,4-c]pyridin-5(4H)-yl)(isoquinolin-3-yl)methanone], for which the activity at 3 µM came to 1%.

As to `COc1cccc(OC)c1OCC(=O)N1CCc2nc(N3C4CCC3CNC4)sc2C1` [Example 172, 1-(2-(3,8-diazabicyclo[3.2.1]octan-8-yl)-6,7-dihydrothiazolo[5,4-c]pyridin-5(4H)-yl)-2-(2,6-dimethoxyphenoxy)ethan-1-one], the activity at 3 µM came out at 10%.

With `O=C([C@@H](O)C1CCCC1)N1CCc2nc(N3C4CCC3CNC4)sc2C1` [Example 170, (2S)-1-(2-(3,8-diazabicyclo[3.2.1]octan-8-yl)-6,7-dihydrothiazolo[5,4-c]pyridin-5(4H)-yl)-2-cyclopentyl-2-hydroxyethan-1-one], the activity at 3 µM came out at 5%.

Regarding `COCc1ccccc1C(=O)N1CCc2nc(N3C4CCC3CNC4)sc2C1` [Example 214, (2-(3,8-diazabicyclo[3.2.1]octan-8-yl)-6,7-dihydrothiazolo[5,4-c]pyridin-5(4H)-yl)(2-(methoxymethyl)phenyl)methanone], the activity at 3 µM was 54%.

Consider `Cc1ccc(C(=O)N2CCc3nc(N4C5CCC4CNC5)sc3C2)c(C#N)c1` [Example 238, 2-(2-(3,8-diazabicyclo[3.2.1]octan-8-yl)-4,5,6,7-tetrahydrothiazolo[5,4-c]pyridine-5-carbonyl)-5-methylbenzonitrile], for which the activity at 3 µM worked out at 5%.

Regarding `O=C(c1ccccc1)N1CCc2nc(N3C4CCC3CNC4)sc2C1` [Example 193, (2-(3,8-diazabicyclo[3.2.1]octan-8-yl)-6,7-dihydrothiazolo[5,4-c]pyridin-5(4H)-yl)(phenyl)methanone], the activity at 3 µM was -1%.

The experiment is the same for the next values; noted with them: Mus musculus, mIMCD3, 144 h, 10 μM; mean cyst area, 100% for (DMSO + PGE2) and 0% for DMSO control; 6 days of culture; read-out: % Cyst area after incubation with 10 μM test compound.
As to `CC(C)(Oc1ccccc1)C(=O)N1CCc2nc(N3C4CCC3CNC4)sc2C1` [Example 30, 1-(2-(3,8-diazabicyclo[3.2.1]octan-8-yl)-6,7-dihydrothiazolo[5,4-c]pyridin-5(4H)-yl)-2-methyl-2-phenoxypropan-1-one], the activity at 10 µM is 1%.

In the case of `O=C(Cc1ccnc(F)c1)N1CCc2nc(N3C4CCC3CNC4)sc2C1` [Example 141, 1-(2-(3,8-diazabicyclo[3.2.1]octan-8-yl)-6,7-dihydrothiazolo[5,4-c]pyridin-5(4H)-yl)-2-(2-fluoropyridin-4-yl)ethan-1-one], the activity at 10 µM is -7%.

`CC1(C)CCCN1C(=O)N1CCc2nc(N3C4CCC3CNC4)sc2C1` [Example 120, (2-(3,8-diazabicyclo[3.2.1]octan-8-yl)-6,7-dihydrothiazolo[5,4-c]pyridin-5(4H)-yl)(2,2-dimethylpyrrolidin-1-yl)methanone]: the activity at 10 µM was determined as 2%.

As to `O=C(N1CCc2nc(N3C4CCC3CNC4)sc2C1)N1CCC2(CCC2)C1` [Example 123, (2-(3,8-diazabicyclo[3.2.1]octan-8-yl)-6,7-dihydrothiazolo[5,4-c]pyridin-5(4H)-yl)(6-azaspiro[3.4]octan-6-yl)methanone], the activity at 10 µM is -4%.

On to `COc1cc(F)ccc1CCC(=O)N1CCc2nc(N3C4CCC3CNC4)sc2C1` [Example 147, 1-(2-(3,8-diazabicyclo[3.2.1]octan-8-yl)-6,7-dihydrothiazolo[5,4-c]pyridin-5(4H)-yl)-3-(4-fluoro-2-methoxyphenyl)propan-1-one], for which the activity at 10 µM was found to be 9%.

As to `CC1(C)CCN(C(=O)N2CCc3nc(N4C5CCC4CNC5)sc3C2)C1` [Example 121, (2-(3,8-diazabicyclo[3.2.1]octan-8-yl)-6,7-dihydrothiazolo[5,4-c]pyridin-5(4H)-yl)(3,3-dimethylpyrrolidin-1-yl)methanone], the activity at 10 µM was 0%.

For the compound `CC1(C)CCC(C(=O)N2CCc3nc(N4C5CCC4CNC5)sc3C2)C1` (stereo not drawn) [Example 38, (2-(3,8-diazabicyclo[3.2.1]octan-8-yl)-6,7-dihydrothiazolo[5,4-c]pyridin-5(4H)-yl)(3,3-dimethylcyclopentyl)methanone], the activity at 10 µM was 8%.

For `CN(C(=O)N1CCc2nc(N3C4CCC3CNC4)sc2C1)C1CCCC1` [Example 62, 2-(3,8-diazabicyclo[3.2.1]octan-8-yl)-N-cyclopentyl-N-methyl-6,7-dihydrothiazolo[5,4-c]pyridine-5(4H)-carboxamide], the activity at 10 µM is 1%.

`CN1CC2CCC(C1)N2c1cc2n(n1)CCN(C(=O)NC1CCC(F)(F)CC1)C2` [Example 85, N-(4,4-difluorocyclohexyl)-2-(3-methyl-3,8-diazabicyclo[3.2.1]octan-8-yl)-6,7-dihydropyrazolo[1,5-a]pyrazine-5(4H)-carboxamide]: the activity at 10 µM is -2%.

As for `O=C(CCc1ccc(F)nc1)N1CCc2nc(N3C4CCC3CNC4)sc2C1` [Example 142, 1-(2-(3,8-diazabicyclo[3.2.1]octan-8-yl)-6,7-dihydrothiazolo[5,4-c]pyridin-5(4H)-yl)-3-(6-fluoropyridin-3-yl)propan-1-one], the activity at 10 µM is -4%.

`CN1CC2CCC(C1)N2c1nc2c(s1)CN(C(=O)COc1ccnc(F)c1)CC2` [Example 79, 2-((2-fluoropyridin-4-yl)oxy)-1-(2-(3-methyl-3,8-diazabicyclo[3.2.1]octan-8-yl)-6,7-dihydrothiazolo[5,4-c]pyridin-5(4H)-yl)ethan-1-one]: the activity at 10 µM is -2%.

With `COC1(CC(=O)N2CCc3nc(N4C5CCC4CNC5)sc3C2)CCCC1` [Example 134, 1-(2-(3,8-diazabicyclo[3.2.1]octan-8-yl)-6,7-dihydrothiazolo[5,4-c]pyridin-5(4H)-yl)-2-(1-methoxycyclopentyl)ethan-1-one], the activity at 10 µM is -4%.

Take `COc1ccccc1CC(=O)N1CCc2nc(N3C4CCC3CNC4)sc2C1` [Example 139, 1-(2-(3,8-diazabicyclo[3.2.1]octan-8-yl)-6,7-dihydrothiazolo[5,4-c]pyridin-5(4H)-yl)-2-(2-methoxyphenyl)ethan-1-one]: the activity at 10 µM is -1%.

For the compound `CN1CC2CCC(C1)N2c1nc2c(s1)CN(C(=O)CC1CCCC1)CC2(C)C` [Example 102, 2-cyclopentyl-1-(7,7-dimethyl-2-(3-methyl-3,8-diazabicyclo[3.2.1]octan-8-yl)-6,7-dihydrothiazolo[5,4-c]pyridin-5(4H)-yl)ethan-1-one], the activity at 10 µM is -3%.

Take `CN1CC2CCC(C1)N2c1nc2c(s1)CN(C(=O)NC1CCC(F)(F)CC1)CC2` [Example 77, N-(4,4-difluorocyclohexyl)-2-(3-methyl-3,8-diazabicyclo[3.2.1]octan-8-yl)-6,7-dihydrothiazolo[5,4-c]pyridine-5(4H)-carboxamide]: the activity at 10 µM worked out at 1%.

On to `O=C(N1CCc2nc(N3C4CCC3CNC4)sc2C1)C1(c2ccccc2)CC1` [Example 33, (2-(3,8-diazabicyclo[3.2.1]octan-8-yl)-6,7-dihydrothiazolo[5,4-c]pyridin-5(4H)-yl)(1-phenylcyclopropyl)methanone], for which the activity at 10 µM came out at 8%.

For `O=C(CC1CCC(F)(F)CC1)N1Cc2nc(N3C4CCC3CNC4)sc2C1` [Example 67, 1-(2-(3,8-diazabicyclo[3.2.1]octan-8-yl)-4,6-dihydro-5H-pyrrolo[3,4-d]thiazol-5-yl)-2-(4,4-difluorocyclohexyl)ethan-1-one], the activity at 10 µM is -4%.
